Reference: US20090118332A1, “Therapeutic Agents - 551” (AstraZeneca AB, priority 2006, published 2009)

Biological target: T1, human Fatty Acid Synthase (Homo sapiens, UniProt P49327)
T1 construct: made in house
Test: Human FAS enzyme assay (decrease in NADPH fluorescence)
Type: biochemical
Conditions: % inhibition at a concentration of 100 μmolar
Summary of the method: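 In-house human FAS was preincubated with compound and NADPH for 15 min at room temperature in 0.1 M Tris pH 7.5 with EDTA, glutathione and BSA. Malonyl CoA and acetyl CoA (500 μM and 150 μM in the added mix) were then added for 60 min. IC50 came from time-zero-subtracted NADPH fluorescence (340/460 nm).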

T1 sequence (P49327 whole entry): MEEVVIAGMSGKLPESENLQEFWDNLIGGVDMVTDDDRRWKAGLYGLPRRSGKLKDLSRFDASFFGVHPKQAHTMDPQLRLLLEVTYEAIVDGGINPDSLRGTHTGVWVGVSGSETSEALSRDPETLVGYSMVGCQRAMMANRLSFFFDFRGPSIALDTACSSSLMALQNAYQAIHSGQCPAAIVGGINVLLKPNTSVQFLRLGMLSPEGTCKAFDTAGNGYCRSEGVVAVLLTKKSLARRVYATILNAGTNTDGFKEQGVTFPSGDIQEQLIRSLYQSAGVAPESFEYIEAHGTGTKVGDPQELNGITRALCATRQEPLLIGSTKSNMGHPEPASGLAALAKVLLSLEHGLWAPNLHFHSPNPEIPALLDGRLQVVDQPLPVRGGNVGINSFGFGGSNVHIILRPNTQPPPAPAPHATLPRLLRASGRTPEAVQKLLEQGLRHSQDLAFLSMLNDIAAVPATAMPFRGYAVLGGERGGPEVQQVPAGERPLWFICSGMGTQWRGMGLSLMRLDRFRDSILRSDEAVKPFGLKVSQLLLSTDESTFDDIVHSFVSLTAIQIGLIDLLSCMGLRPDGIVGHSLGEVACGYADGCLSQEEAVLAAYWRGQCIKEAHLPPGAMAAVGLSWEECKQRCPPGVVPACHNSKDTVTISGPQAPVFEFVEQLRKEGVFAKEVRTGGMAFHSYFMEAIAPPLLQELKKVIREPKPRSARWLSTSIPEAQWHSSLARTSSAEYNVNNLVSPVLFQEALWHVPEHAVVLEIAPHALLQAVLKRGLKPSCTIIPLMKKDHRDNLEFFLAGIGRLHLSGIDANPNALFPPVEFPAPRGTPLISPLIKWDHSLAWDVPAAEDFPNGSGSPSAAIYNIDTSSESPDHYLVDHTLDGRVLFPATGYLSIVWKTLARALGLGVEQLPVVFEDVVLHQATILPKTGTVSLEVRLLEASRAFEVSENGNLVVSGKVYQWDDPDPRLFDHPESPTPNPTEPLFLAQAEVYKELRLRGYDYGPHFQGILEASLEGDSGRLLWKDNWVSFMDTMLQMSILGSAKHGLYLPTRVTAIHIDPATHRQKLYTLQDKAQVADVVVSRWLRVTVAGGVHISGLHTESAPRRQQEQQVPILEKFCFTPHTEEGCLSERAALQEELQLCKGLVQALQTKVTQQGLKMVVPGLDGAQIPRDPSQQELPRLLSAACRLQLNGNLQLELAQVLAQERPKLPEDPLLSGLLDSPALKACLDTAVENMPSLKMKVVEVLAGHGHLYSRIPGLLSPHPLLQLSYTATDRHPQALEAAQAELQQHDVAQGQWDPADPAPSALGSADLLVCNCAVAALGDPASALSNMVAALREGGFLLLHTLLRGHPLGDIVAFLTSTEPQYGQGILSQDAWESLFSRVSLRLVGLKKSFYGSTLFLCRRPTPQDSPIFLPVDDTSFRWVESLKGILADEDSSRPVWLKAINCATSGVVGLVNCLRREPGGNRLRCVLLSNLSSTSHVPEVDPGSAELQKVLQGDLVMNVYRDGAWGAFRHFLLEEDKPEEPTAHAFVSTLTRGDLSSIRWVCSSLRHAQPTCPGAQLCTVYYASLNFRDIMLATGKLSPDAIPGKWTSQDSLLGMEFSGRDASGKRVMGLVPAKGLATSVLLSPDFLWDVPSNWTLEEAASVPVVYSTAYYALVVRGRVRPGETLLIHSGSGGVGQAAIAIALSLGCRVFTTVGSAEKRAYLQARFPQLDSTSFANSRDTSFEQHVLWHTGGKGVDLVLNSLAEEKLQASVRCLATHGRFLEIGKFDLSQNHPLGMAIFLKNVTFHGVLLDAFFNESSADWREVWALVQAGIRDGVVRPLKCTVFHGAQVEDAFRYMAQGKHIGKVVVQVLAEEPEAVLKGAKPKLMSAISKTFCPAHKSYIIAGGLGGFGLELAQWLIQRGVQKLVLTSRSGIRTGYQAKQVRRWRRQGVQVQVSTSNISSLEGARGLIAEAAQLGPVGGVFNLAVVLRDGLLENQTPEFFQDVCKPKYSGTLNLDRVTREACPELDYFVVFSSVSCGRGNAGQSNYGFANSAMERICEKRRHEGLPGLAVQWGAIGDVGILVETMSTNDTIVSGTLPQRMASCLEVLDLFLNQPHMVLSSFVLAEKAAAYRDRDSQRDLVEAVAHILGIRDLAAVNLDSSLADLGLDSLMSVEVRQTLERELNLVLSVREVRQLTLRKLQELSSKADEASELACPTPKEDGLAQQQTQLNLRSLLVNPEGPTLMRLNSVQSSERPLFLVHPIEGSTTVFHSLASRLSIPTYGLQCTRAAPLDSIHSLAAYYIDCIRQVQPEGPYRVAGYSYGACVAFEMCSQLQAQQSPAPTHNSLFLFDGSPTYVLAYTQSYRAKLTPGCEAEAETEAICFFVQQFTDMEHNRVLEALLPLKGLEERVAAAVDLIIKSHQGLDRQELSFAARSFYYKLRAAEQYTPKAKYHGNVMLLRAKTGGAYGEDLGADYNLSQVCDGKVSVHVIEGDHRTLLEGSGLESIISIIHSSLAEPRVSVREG

Row | inhibition at 100 µM | Compound
1 | 102% | Cc1ccc(C(=O)N2CCC(c3ccc(C#N)cc3)CC2)cc1NC(=O)NCCc1cccc(F)c1 [Example 68, 1-[5-[4-(4-cyanophenyl)piperidine-1-carbonyl]-2-methyl-phenyl]-3-[2-(3-fluorophenyl)ethyl]urea]
2 | 87.9% | Cc1ccc(C(=O)N2CCC(c3ccc(C#N)cc3)CC2)cc1NC(=O)NCCCCNC(=O)OC(C)(C)C [Example 69, tert-butyl N-[4-[[5-[4-(4-cyanophenyl)piperidine-1-carbonyl]-2-methyl-phenyl]carbamoylamino]butyl]carbamate]
3 | 94.2% | Cc1ccc(C(=O)N2CCC(c3ccc(C#N)cc3)CC2)cc1NC(=O)NCC(C)(C)C [Example 71, 1-[5-[4-(4-cyanophenyl)piperidine-1-carbonyl]-2-methyl-phenyl]-3-(2,2-dimethylpropyl)urea]
4 | 80.1% | COC(=O)CNC(=O)Nc1cc(C(=O)N2CCC(c3ccc(C#N)cc3)CC2)ccc1C [Example 72, Methyl 2-[[5-[4-(4-cyanophenyl)piperidine-1-carbonyl]-2-methyl-phenyl]carbamoylamino]acetate]
5 | 78.2% | Cc1ccc(C(=O)N2CCC(c3ccc(C#N)cc3)CC2)cc1NC(=O)N[C@@H](CC(C)C)C(N)=O [Example 73, (2S)-2-[[5-[4-(4-cyanophenyl)piperidine-1-carbonyl]-2-methyl-phenyl]carbamoylamino]-4-methyl-pentanamide]
6 | 89.6% | Cc1ccc(C(=O)N2CCC(c3ccc(C#N)cc3)CC2)cc1NC(=O)NCCCN1CCCC1 [Example 74, 1-[5-[4-(4-cyanophenyl)piperidine-1-carbonyl]-2-methyl-phenyl]-3-(3-pyrrolidin-1-ylpropyl)urea]
7 | 87.4% | Cc1ccc(C(=O)N2CCC(c3ccc(C#N)cc3)CC2)cc1NC(=O)NCc1ccc(-c2csnn2)cc1 [Example 75, 1-[5-[4-(4-cyanophenyl)piperidine-1-carbonyl]-2-methyl-phenyl]-3-[[4-(thiadiazol-4-yl)phenyl]methyl]urea]
8 | 97.5% | Cc1cc(C)n(CCNC(=O)Nc2cc(C(=O)N3CCC(c4ccc(C#N)cc4)CC3)ccc2C)n1 [Example 76, 1-[5-[4-(4-cyanophenyl)piperidine-1-carbonyl]-2-methyl-phenyl]-3-[2-(3,5-dimethylpyrazol-1-yl)ethyl]urea]
9 | 89.6% | Cc1ccc(C(=O)N2CCC(c3ccc(C#N)cc3)CC2)cc1NC(=O)NC1CCOC(C)(C)C1 (stereo not drawn) [Example 77, 1-[5-[4-(4-cyanophenyl)piperidine-1-carbonyl]-2-methyl-phenyl]-3-(2,2-dimethyloxan-4-yl)urea]
10 | 85.7% | Cc1ccc(C(=O)N2CCC(c3ccc(C#N)cc3)CC2)cc1NC(=O)N[C@@H](COC(C)(C)C)C(N)=O [Example 78, (2S)-2-[[5-[4-(4-cyanophenyl)piperidine-1-carbonyl]-2-methyl-phenyl]carbamoylamino]-3-[(2-methylpropan-2-yl)oxy]propanamide]
11 | 95.4% | CCCN1CCC(NC(=O)Nc2cc(C(=O)N3CCC(c4ccc(C#N)cc4)CC3)ccc2C)CC1 [Example 79, 3-[5-[4-(4-cyanophenyl)piperidine-1-carbonyl]-2-methyl-phenyl]-1-(1-propyl-4-piperidyl)urea]
12 | 96.1% | Cc1ccc(C(=O)N2CCC(c3ccc(C#N)cc3)CC2)cc1NC(=O)NCC1CCS(=O)(=O)C1 (stereo not drawn) [Example 80, 1-[5-[4-(4-cyanophenyl)piperidine-1-carbonyl]-2-methyl-phenyl]-3-[(1,1-dioxothiolan-3-yl)methyl]urea]
13 | 88.2% | Cc1ccc(C(=O)N2CCC(c3ccc(C#N)cc3)CC2)cc1NC(=O)NCCNC(=O)OCc1ccccc1 [Example 81, Benzyl N-[2-[[5-[4-(4-cyanophenyl)piperidine-1-carbonyl]-2-methyl-phenyl]carbamoylamino]ethyl]carbamate]
14 | 82% | Cc1ccc(C(=O)N2CCC(c3ccc(C#N)cc3)CC2)cc1NC(=O)NCc1nnn[nH]1 [Example 82, 1-[5-[4-(4-cyanophenyl)piperidine-1-carbonyl]-2-methyl-phenyl]-3-(1H-tetrazol-5-ylmethyl)urea]
15 | 102% | COc1ccccc1OCCNC(=O)Nc1cc(C(=O)N2CCC(c3ccc(C#N)cc3)CC2)ccc1C [Example 83, 1-[5-[4-(4-cyanophenyl)piperidine-1-carbonyl]-2-methyl-phenyl]-3-[2-(2-methoxyphenoxy)ethyl]urea]
16 | 92.3% | COc1ccc([C@@H](C)NC(=O)Nc2cc(C(=O)N3CCC(c4ccc(C#N)cc4)CC3)ccc2C)cc1 [Example 84, 1-[5-[4-(4-cyanophenyl)piperidine-1-carbonyl]-2-methyl-phenyl]-3-[(1R)-1-(4-methoxyphenyl)ethyl]urea]
17 | 93.6% | Cc1ccc(C(=O)N2CCC(c3ccc(C#N)cc3)CC2)cc1NC(=O)NCc1cccc(N)c1 [Example 85, 3-[(3-aminophenyl)methyl]-1-[5-[4-(4-cyanophenyl)piperidine-1-carbonyl]-2-methyl-phenyl]urea]

Row | inhibition at 100 µM | Compound
18 | 94% | Cc1ccc(C(=O)N2CCC(c3ccc(C#N)cc3)CC2)cc1NC(=O)NCCNS(=O)(=O)c1ccccc1 [Example 86, 3-[2-(benzenesulfonamido)ethyl]-1-[5-[4-(4-cyanophenyl)piperidine-1-carbonyl]-2-methyl-phenyl]urea]
19 | 92.5% | Cc1ccc(C(=O)N2CCC(c3ccc(C#N)cc3)CC2)cc1NC(=O)NCCNc1ccc([N+](=O)[O-])cc1 [Example 87, 1-[5-[4-(4-cyanophenyl)piperidine-1-carbonyl]-2-methyl-phenyl]-3-[2-[(4-nitrophenyl)amino]ethyl]urea]
20 | 87.6% | Cc1ccc(C(=O)N2CCC(c3ccc(C#N)cc3)CC2)cc1NC(=O)NC(C)c1ccc(F)cc1 (stereo not drawn) [Example 88, 1-[5-[4-(4-cyanophenyl)piperidine-1-carbonyl]-2-methyl-phenyl]-3-[1-(4-fluorophenyl)ethyl]urea]
21 | 93.1% | Cc1ccc(C(=O)N2CCC(c3ccc(C#N)cc3)CC2)cc1NC(=O)NCc1ccoc1 [Example 89, 1-[5-[4-(4-cyanophenyl)piperidine-1-carbonyl]-2-methyl-phenyl]-3-(3-furylmethyl)urea]
22 | 93.6% | Cc1ccc(C(=O)N2CCC(c3ccc(C#N)cc3)CC2)cc1NC(=O)NCCO [Example 90, 1-[5-[4-(4-cyanophenyl)piperidine-1-carbonyl]-2-methyl-phenyl]-3-(2-hydroxyethyl)urea]
23 | 95.9% | Cc1ccc(C(=O)N2CCC(c3ccc(C#N)cc3)CC2)cc1NC(=O)NCCNC(=O)c1ccccn1 [Example 91, N-[2-[[5-[4-(4-cyanophenyl)piperidine-1-carbonyl]-2-methyl-phenyl]carbamoylamino]ethyl]pyridine-2-carboxamide]
24 | 102% | Cc1ccc(C(=O)N2CCC(c3ccc(C#N)cc3)CC2)cc1NC(=O)NCCNS(=O)(=O)N(C)C [Example 92, 1-[5-[4-(4-cyanophenyl)piperidine-1-carbonyl]-2-methyl-phenyl]-3-[2-(dimethylsulfamoylamino)ethyl]urea]
25 | 90.1% | Cc1ccc(C(=O)N2CCC(c3ccc(C#N)cc3)CC2)cc1NC(=O)NC(C)(C)CNC(=O)c1cccnc1 [Example 93, N-[2-[[5-[4-(4-cyanophenyl)piperidine-1-carbonyl]-2-methyl-phenyl]carbamoylamino]-2-methyl-propyl]pyridine-3-carboxamide]
26 | 89.6% | Cc1ccc(C(=O)N2CCC(c3ccc(C#N)cc3)CC2)cc1NC(=O)NCCNc1nc(N)nc(C)c1C [Example 94, 3-[2-[(2-amino-5,6-dimethyl-pyrimidin-4-yl)amino]ethyl]-1-[5-[4-(4-cyanophenyl)piperidine-1-carbonyl]-2-methyl-phenyl]urea]
27 | 94.4% | Cc1ccc(C(=O)N2CCC(c3ccc(C#N)cc3)CC2)cc1NC(=O)NCCNc1ncnc2[nH]cnc12 [Example 95, 1-[5-[4-(4-cyanophenyl)piperidine-1-carbonyl]-2-methyl-phenyl]-3-[2-(9H-purin-6-ylamino)ethyl]urea]
28 | 103% | CC(C)=CCNC(=O)Nc1cc(C(=O)N2CCC(c3ccc(C#N)cc3)CC2)ccc1C [Example 96, 1-[5-[4-(4-cyanophenyl)piperidine-1-carbonyl]-2-methyl-phenyl]-3-(3-methylbut-2-enyl)urea]
29 | 95.5% | Cc1ccc(C(=O)N2CCC(c3ccc(C#N)cc3)CC2)cc1NC(=O)NC1CN(C(=O)OC(C)(C)C)C1 [Example 97, tert-butyl 3-[[5-[4-(4-cyanophenyl)piperidine-1-carbonyl]-2-methyl-phenyl]carbamoylamino]azetidine-1-carboxylate]
30 | 91.9% | Cc1ccc(C(=O)N2CCC(c3ccc(C#N)cc3)CC2)cc1NC(=O)NC(C)c1ccc(S(C)(=O)=O)cc1 (stereo not drawn) [Example 98, 1-[5-[4-(4-cyanophenyl)piperidine-1-carbonyl]-2-methyl-phenyl]-3-[1-(4-methylsulfonylphenyl)ethyl]urea]
31 | 90.2% | Cc1ccc(C(=O)N2CCC(c3ccc(C#N)cc3)CC2)cc1NC(=O)NC1Cc2ccncc2NC1=O (stereo not drawn) [Example 99, 1-[5-[4-(4-cyanophenyl)piperidine-1-carbonyl]-2-methyl-phenyl]-3-(2-oxo-3,4-dihydro-1H-1,7-naphthyridin-3-yl)urea]
32 | 77.8% | Cc1ccc(C(=O)N2CCC(c3ccc(C#N)cc3)CC2)cc1NC(=O)NCCCN1CCCC(C)C1 (stereo not drawn) [Example 100, 1-[5-[4-(4-cyanophenyl)piperidine-1-carbonyl]-2-methyl-phenyl]-3-[3-(3-methyl-1-piperidyl)propyl]urea]
33 | 90.7% | COc1ccc(NCCNC(=O)Nc2cc(C(=O)N3CCC(c4ccc(C#N)cc4)CC3)ccc2C)cc1 [Example 101, 1-[5-[4-(4-cyanophenyl)piperidine-1-carbonyl]-2-methyl-phenyl]-3-[2-[(4-methoxyphenyl)amino]ethyl]urea]
